Assay [1] has as its system MKN45 NucLight Red (NLR) target cells. In words: killing assay with PBMCs, MKN45 NLR target cells and CEA-TCB (Incucyte). Format: cell-based.
A further assay concerns SUDLH-8 tumor cells. In words: killing assay with PBMCs, CTV labelled SUDLH-8 tumor cells and CD19-TCB. Format: cell-based. To be noted: 24 hrs; 100 nM kinase inhibitors or dexamethasone, 5 μg/mL antibodies. On the procedure:
FIG. 64. In vitro killing assay set-up. PBMCs were co-cultured with CellTrace™ Violet (CTV) labelled SUDLH-8 tumor cells (E:T=10:1) in the presence of escalating concentrations of CD19-TCB in media supplemented with the different kinase inhibitors (100 nM) for 24 hrs.
FIG. 69. In vitro killing assay set-up. PBMCs were co-cultured with CTV labelled SUDLH-8 cells (E:T=10:1) in the presence of escalating concentrations of CD19-TCB in media supplemented with the different JAK inhibitors (100 nM) for 24 hrs.
FIG. 73. In vitro killing assay set-up.
(§1) PBMCs were co-cultured together with CellTrace™ Violet (CTV) labelled SUDLH-8 tumor cells and escalating concentrations of CD19-TCB in the presence of the different kinase inhibitors, including also the Src inhibitor dasatinib (FIG. 64). At assay endpoint (24 hrs), the killing of CTV labelled SUDLH-8 cells was measured by flow cytometry by exclusion of the dead SUDLH-8 cells with a Live/Dead stain. […] Lastly, the levels of cytokines were measured in the supernatants of the assay to evaluate the effect of mTOR, JAK and Src inhibitors on CD19-TCB-induced cytokine release.
(§2) At assay endpoint (24 hrs), the killing of CTV labelled SUDLH-8 cells was measured by flow cytometry by exclusion of the dead SUDLH-8 cells with a Live/Dead stain. […] Lastly, the levels of cytokines were measured in the supernatants of the assay to assess the effect of the JAK inhibitors on CD19-TCB-induced cytokine release.
(§3) At assay endpoint (24 hrs), the killing of CTV labelled SUDLH-8 cells was measured by flow cytometry by exclusion of the dead SUDLH-8 cells with a Live/Dead stain to evaluate the effect of the different mitigation approaches on CD19-TCB-dependent killing. […] Lastly, the levels of cytokines were measured in the supernatants of the assay to address the effect of the JAK inhibitors on CD19-TCB-induced cytokine release.

In assay [2] the test system is CD19-TCB-induced cytokine release. Briefly: CD19-TCB-induced cytokine release in SUDLH-8 assay (Luminex). Format: cell-based. As to conditions: 24 hrs. On the procedure: as §1, §2, §3
Assay [3] concerns cytokine release induced by CAR-T cells. In words: cytokine release induced by PGLALA and CD16 CAR-T cells (Luminex). Format: cell-based. To be noted: 100 nM inhibitor. The method, then: FIG. 62. Effect of 100 nM ruxolitinib and 100 nM sirolimus on GM-CSF (A), IFN-γ (B), IL-2 (C) and TNF-α (D) induced by PGLALA CAR-T cells. PGLALA CAR-T cells were co-cultured together with CTV labelled WSU tumor cells (E:T=10:1) and escalating concentrations of PGLALA-Fc anti-CD20 IgG in the presence and absence of 100 nM ruxolitinib (ruxo) or 100 nM sirolimus (siro) respectively. At 24 hours, the supernatants from technical replicates were pooled and cytokines were analyzed by Luminex. Mean of n=2 donors.
FIG. 63. Effect of 100 nM ruxolitinib and 100 nM sirolimus on GM-CSF (A), IFN-γ (B), IL-2 (C) and TNF-α (D) induced by CD16 CAR-T cells. CD16 CAR-T cells were co-cultured together with CTV labelled WSU tumor cells (E:T=10:1) and escalating concentrations of wild-type Fc anti-CD20 IgG in the presence and absence of 100 nM ruxolitinib (ruxo) or 100 nM sirolimus (siro). At 24 hours, the supernatants from technical replicates were pooled and cytokines were analyzed by Luminex. Mean of n=2 donors.
To assess the impact of JAK inhibitor ruxolitinib and mTOR inhibitor sirolimus on cytokine release induced by CAR-T cells, we conducted a killing assay where PGLALA and CD16 universal CAR-T cells (CAR-T cells with a CAR comprising an anti-P329G-Fc scFv (binding to PGLALA Fc) or CD16 (binding to wild-type Fc)) were co-cultured with CTV WSU tumor cells in the presence of escalating concentrations of PGLALA Fc and wild-type Fc anti-CD20 IgG in medium supplemented with 100 nM ruxolitinib or 100 nM sirolimus. To verify whether ruxolitinib and sirolimus interfered with tumor cell killing by CAR-T cells, we measured killing of CTV WSU tumor cells by flow cytometry at 24 hours.

For a further assay, the system named is CD20+ B cells. In words: CD19-TCB-induced B cell depletion in humanized NSG mice. Format: in vivo. To be noted: for CD19-TCB-induced B cell depletion in blood: co-treatment with 0.5 mg/kg CD19-TCB; for CD19-TCB-induced CD20+ B cell depletion in the spleen: 72 hrs (termination). From the text: (§4) FIG. 81. In vivo experiment timelines and dosing schedule.
(§5) To best reproduce the pharmacodynamic profile of ruxolitinib, dasatinib and sirolimus in the clinic and to verify whether the resulting exposure would be sufficient to prevent CD19-TCB-induced cytokine release, dasatinib and ruxolitinib were given per os twice per day, and sirolimus was given per os twice per day on day 1 and then once per day.
At 48 hrs and 72 hrs, blood was collected by tail-vein bleeding and the CD20+ B cell count was measured by flow cytometry (FIGS. 82A and B) to assess the effect of the different treatments on CD19-TCB-induced B cell depletion. […] Its half-life being around 6-7 hrs and dasatinib being given only twice per day, a lack of exposure could likely explain that CD19-TCB was partially active, resulting in B cell depletion. At experiment termination (72 hrs), spleens were collected and the B cell count was measured by flow-cytometry (FIG. 83). […] However, their inhibitory effect was stronger than methylprednisolone (FIG. 83).

Assay [4] deals with CD19-TCB-induced cytokine release. In words: CD19-TCB-induced cytokine release in humanized NSG mice (serum, Luminex). Format: in vivo. As to conditions: serum 6 hrs post treatment with CD19-TCB.
Text: as §4, §5

In assay [5] the test system is lymphoma patient derived xenograft (PDX). In words: CD19-TCB anti-tumor activity in lymphoma PDX bearing humanized NSG mice. Format: in vivo. To be noted: sirolimus 5 mg/kg, p.o.; for anti-tumor activity in combination with CD19-TCB (0.5 mg/kg): ruxolitinib 30 mg/kg, dasatinib 20 mg/kg, dexamethasone, transient use. The method, then: FIG. 89. In vivo experiment timelines and dosing schedule. Humanized NSG mice were engrafted with a lymphoma PDX (5 million cells, s.c.). […] The kinase inhibitors were given twice on the day of the first CD19-TCB administration (D16, once 1 hour before CD19-TCB, and once afterwards), and then once (sirolimus) or twice (dasatinib, ruxolitinib) on the two following days (D17 and D18), as well as once 1 hour before each subsequent CD19-TCB administration.
First, we verified if the PDX cells were killed upon treatment with CD19-TCB in vitro, using a killing assay. The lymphoma PDX cells were co-cultured together with PBMCs (E:T=10:1) in the presence of CD19-TCB. […] Moreover, they were also administered one hour before each subsequent treatment to prevent residual cytokine secretion (FIG. 89).

Setting [6] is: inhibitor doses 12.5 nM to 1 μM, 50 000 PBMCs: 5 000 target cells, Incucyte.
Setting [7] is: 100 nM, compared with dexamethasone.
Where [8] appears, read: 48 hrs, p.o.: 6×30 mg/kg ruxolitinib, 4×5 mg/kg sirolimus, dexamethasone, methylprednisolone.
Setting [9] is: 72 hrs, dasatinib 6×50 mg/kg p.o.

“Also recorded” adds a separate entry of the source.

`CO[C@H]1C[C@@H]2CC[C@@H](C)[C@@](O)(O2)C(=O)C(=O)N2CCCC[C@H]2C(=O)O[C@H]([C@H](C)C[C@@H]2CC[C@@H](OCCO)[C@H](OC)C2)CC(=O)[C@H](C)/C=C(\C)[C@@H](O)[C@@H](OC)C(=O)[C@H](C)C[C@H](C)/C=C/C=C/C=C/1C` [everolimus, Everolimus]: in assay [1] (setting [6]), the “MKN45 NLR target cell killing by 10 nM CEA-TCB” value (“MKN45 NLR target cell killing” for short) is reported as “only partially reduced”. Moreover, the “CD19-TCB-dependent killing of CTV labelled SUDLH-8 cells” value (from here on “CD19-TCB-dependent killing”) in the assay on SUDLH-8 tumor cells was “did not prevent”. Further, in assay [2] (100 nM inhibitor), the CD19-TCB-induced cytokine release result is listed as “comparable to the effect of the corticosteroid dexamethasone”. In addition, in assay [2] (setting [7]), the “CD19-TCB-induced IFN-γ and TNF-α” value is “comparable to the effect of dexamethasone”.

On to `CO[C@H]1C[C@@H]2CC[C@@H](C)[C@@](O)(O2)C(=O)C(=O)N2CCCC[C@H]2C(=O)O[C@H]([C@H](C)C[C@@H]2CC[C@@H](O)[C@H](OC)C2)CC(=O)[C@H](C)/C=C(\C)[C@@H](O)[C@@H](OC)C(=O)[C@H](C)C[C@H](C)/C=C/C=C/C=C/1C` [sirolimus, Sirolimus], for which the “MKN45 NLR target cell killing” value in assay [1] (setting [6]) is given as “only partially reduced”. Further, in assay [3] (CD16 CAR-T cells), the “release of IFN-γ, TNF-α and GM-CSF” value is “strongly reduced”; the “release of IL-2” value is on record as “strongly reduced”. In assay [3] (PGLALA CAR-T cells), the “release of IFN-γ, TNF-α and GM-CSF” value is listed as “strongly reduced”; the “release of IL-2” value is given as “strongly reduced”. Besides, in the assay with SUDLH-8 tumor cells, the “CD19-TCB-dependent killing” value is “did not prevent”. The CD19-TCB-induced cytokine release result in assay [2] (100 nM inhibitor) is recorded as “comparable to the effect of the corticosteroid dexamethasone”. Moreover, the “CD19-TCB-induced IFN-γ and TNF-α” value in assay [2] (setting [7]) is recorded as “comparable to the effect of dexamethasone”. In the assay on CD20+ B cells (setting [8]), the “CD19-TCB-induced B cell depletion in blood” value is given as “slightly prevented”. Further, in the assay with CD20+ B cells, the “CD19-TCB-induced CD20+ B cell depletion in the spleen” value is listed as “only partially prevented”. In addition, in the assay on CD20+ B cells (setting [9]), the “CD19-TCB-induced B cell depletion in blood” value was “comparable to the effect dexamethasone”. Moreover, in assay [4], the “CD19-TCB-induced IFN-γ and IL-6 release” value is recorded as “comparable to the pre-treatement with obinutuzumab”; the “CD19-TCB-induced IL-2 and TNF-α” value is given as “comparable to the pre-treatement with Gazyva®”. Besides, the “anti-tumor activity in combination with CD19-TCB (0.5 mg/kg)” value in assay [5] is on record as “comparable to CD19-TCB alone; also recorded: did not impair”. For the same compound, the “tumor growth, given as a single agent” value in assay [5] (dexamethasone 1, 0.5, 0.25 mg/kg) is “reduction in tumor growth, yet not significant”.

With `N#CC[C@H](C1CCCC1)n1cc(-c2ncnc3[nH]ccc23)cn1` [ruxolitinib, Ruxolitinib], in assay [1] (concentration of 1 μM), the “killing of MKN45 NLR tumor cells induced by 1 nM CEA-TCB” value is “partially prevented”. In addition, the “killing of MKN45 NLR tumor cell induced by 1 nM CEA-TCB” value in assay [1] (concentrations between 0 nM and 100 nM) is on record as “did not prevent”. Moreover, the “MKN45 NLR target cell killing” value in assay [1] (inhibitor doses 6.25 nM to 100 nM) is “only partially reduced”. Moreover, in assay [3] (CD16 CAR-T cells), the “release of IFN-γ, TNF-α and GM-CSF” value is recorded as “reduced”. In addition, the “release of IFN-γ, TNF-α and GM-CSF” value in assay [3] (PGLALA CAR-T cells) was “reduced”. Moreover, the “CD19-TCB-dependent killing” value with SUDLH-8 tumor cells was “did not prevent”. In addition, in assay [2] (100 nM inhibitor), the “CD19-TCB-induced IFN-γ, TNF-α, IL-6 and GM-CSF release” value is recorded as “prevented”; the CD19-TCB-induced cytokine release result is “comparable to the effect of the corticosteroid dexamethasone”. Moreover, in assay [2] (setting [7]), the “CD19-TCB-induced IFN-γ and TNF-α” value is on record as “comparable to the effect of dexamethasone”; the “CD19-TCB-induced IL-2 and GM-CSF” value was “weaker”. In addition, in the assay with CD20+ B cells (setting [8]), the “CD19-TCB-induced B cell depletion in blood” value is listed as “slightly prevented”. Further, the “CD19-TCB-induced CD20+ B cell depletion in the spleen” value in the assay on CD20+ B cells is given as “only partially prevented”. In addition, in the assay on CD20+ B cells (setting [9]), the “CD19-TCB-induced B cell depletion in blood” value is listed as “comparable to the effect dexamethasone”. Besides, in assay [4], the “CD19-TCB-induced IFN-γ and IL-6 release” value is “comparable to the pre-treatement with obinutuzumab”; the “CD19-TCB-induced IL-2 and TNF-α” value was “slightly weaker”. Moreover, the “anti-tumor activity in combination with CD19-TCB (0.5 mg/kg)” value in assay [5] is “minimally interfered; also recorded: did not impair”.

In the case of `CO[C@H]1C[C@@H]2CC[C@@H](C)[C@@](O)(O2)C(=O)C(=O)N2CCCC[C@H]2C(=O)O[C@H]([C@H](C)C[C@@H]2CC[C@@H](OC(=O)C(C)(CO)CO)[C@H](OC)C2)CC(=O)[C@H](C)/C=C(\C)[C@@H](O)[C@@H](OC)C(=O)[C@H](C)C[C@H](C)/C=C/C=C/C=C/1C` [temsirolimus, Temsirolimus], the “MKN45 NLR target cell killing” value in assay [1] (setting [6]) is listed as “only partially reduced”. The “CD19-TCB-dependent killing” value in the assay with SUDLH-8 tumor cells is listed as “did not prevent”. Also, the CD19-TCB-induced cytokine release result in assay [2] (100 nM inhibitor) was “comparable to the effect of the corticosteroid dexamethasone”. Moreover, the “CD19-TCB-induced IFN-γ and TNF-α” value in assay [2] (setting [7]) is “comparable to the effect of dexamethasone”.

Source of the values: patent US12629419B2, “Prevention or mitigation of T-cell engaging agent-related adverse effects” (Hoffmann-La Roche Inc., priority 2020, dated 2026).
